Experimental data as given in patent publication US6013649A, “Thiol sulfone metalloprotease inhibitors” (Monsanto Company, priority 1997, dated 2000).

Assays:
hMMP 13 = molecular target: T1, hMMP 13 (Homo sapiens, UniProt P45452); experiment: In vitro metalloprotease inhibition, fluorogenic peptide substrate (recombinant human MMP-13, APMA activated); type: biochemical; conditions: recombinant human MMP-13, room temperature, pH 7.5, 4 μM substrate
T1 construct: made in house
Procedure: (§1) Briefly, 4-aminophenylmercuric acetate (APMA) or trypsin activated MMPs were incubated with various concentrations of the inhibitor compound at room temperature for 5 minutes (0.02% 2-mercaptoethanol added to buffer for thiol compounds with 5 minutes or overnight incubation).
(§2) More specifically, recombinant human MMP-13 and MMP-1 enzymes were prepared in laboratories of the assignee. MMP-13 was expressed in baculovirus as a proenzyme, and purified first over a heparin agarose column and then over a chelating zinc chloride column. The proenzyme was activated by APMA for use in the assay. MMP-1 expressed in transfected HT-1080 cells was provided by Dr. Howard Welgus of Washington University, St. Louis, Mo. The enzyme was also activated using APMA and was then purified over a hydroxamic acid column.
(§3) The enzyme substrate is a methoxycoumarin-containing polypeptide having the following sequence:
(§4) MCA-ProLeuGlyLeuDpaAlaArgNH^2, wherein MCA is methoxycoumarin and Dpa is 3-(2,4--dinitrophenyl)-L-2,3-diaminopropionyl alanine.
(§5) Assays were carried out at room temperature, and dimethyl sulfoxide (DMSO) at a final concentration of 1 percent was used to dissolve inhibitor compound.
(§6) The assayed inhibitor compound in DMSO/buffer solution was compared to an equal amount of DMSO/buffer with no inhibitor as control using Microfluor™ White Plates (Dynatech). The inhibitor or control solution was maintained in the plate for 10 minutes and the substrate was added to provide a final concentration of 4 μM.
(§7) Inhibition was measured as a reduction in fluorescent intensity as a function of inhibitor concentration, using a Perkin Elmer L550 plate reader. The IC50 values were calculated from those values.

hMMP 1 = molecular target: T2, hMMP 1 (Homo sapiens, UniProt P03956); experiment: In vitro metalloprotease inhibition, fluorogenic peptide substrate (recombinant human MMP-1, APMA activated); type: biochemical; conditions: human MMP-1, room temperature, pH 7.5, 4 μM substrate
T2 construct: host or cells: transfected HT-1080 cells
T2 sequence (P03956 100-469): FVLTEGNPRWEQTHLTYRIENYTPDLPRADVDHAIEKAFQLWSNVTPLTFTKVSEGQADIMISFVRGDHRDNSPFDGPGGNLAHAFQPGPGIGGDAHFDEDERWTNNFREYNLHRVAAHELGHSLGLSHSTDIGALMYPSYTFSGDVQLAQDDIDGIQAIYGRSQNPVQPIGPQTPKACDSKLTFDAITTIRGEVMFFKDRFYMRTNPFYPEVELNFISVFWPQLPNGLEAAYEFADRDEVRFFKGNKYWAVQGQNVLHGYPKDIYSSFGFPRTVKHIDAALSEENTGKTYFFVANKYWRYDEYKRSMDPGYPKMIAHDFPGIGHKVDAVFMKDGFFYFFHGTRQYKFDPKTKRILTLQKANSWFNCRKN
Procedure: as §1, §2, §3, §4, §5, §6, §7

[1] = test system: neovascularization of the corneal stroma; experiment: In vivo angiogenesis assay (corneal micropocket assay, bFGF pellet); parameters: species or system mouse (C57Bl/6 female); conditions: 50 mg/kg bid, po, day five, mouse cornea
Procedure: The study of angiogenesis depends on a reliable and reproducible model for the stimulation and inhibition of a neovascular response. The corneal micropocket assay provides such a model of angiogenesis in the cornea of a mouse. See, A Model of Angiogenesis in the Mouse Cornea; Kenyon, BM, et al., Investigative Ophthalmology & Visual Science, July 1996, Vol. 37, No. 8.
In this assay, uniformly sized Hydron™ pellets containing bFGF and sucralfate were prepared and surgically implanted into the stroma mouse cornea adjacent to the temporal limbus. […]
Mice were dosed on a daily basis for the duration of the assay. […] At day five, the degree of angiogenic inhibition was scored by viewing the neovascular progression with a slit lamp microscope.
The mice were anesthetized and the studied eye was once again proptosed. The maximum vessel length of neovascularization, extending from the limbal vascular plexus toward the pellet was measured. In addition, the contiguous circumferential zone of neovascularization was measured as clock hours, where 30 degrees of arc equals one clock hour. The area of angiogenesis was calculated as follows. […]
The studied mice were thereafter compared to control mice and the difference in the area of neovascularization was recorded.

Row | SMILES | IC50 (hMMP 13) [nM] | IC50 (hMMP 1) [nM] | inhibition (difference in area of neovascularization vs control mice) [1] [%]
1 | COc1ccc(S(=O)(=O)CC(C)S)cc1 (racemic) [Example 1, (R,S)1-[(4-methoxyphenyl)-sulfonyl]propane-2-thiol] | 400 | 4000 | 
2 | COc1ccc(S(=O)(=O)CCC(C)S)cc1 (racemic) [Example 2, (R,S)-4-[(4-methoxyphenyl)-sulfonyl]butane-2-thiol] | 33 | 8000 | 
3 | COC(=O)C(S)CCS(=O)(=O)c1ccc(OC)cc1 (racemic) [Example 10, (R,S)-Methyl-4-[(4-methoxyphenyl)sulfonyl]-2-mercaptobutanoate] | 15 | 4000 | 
4 | COc1ccc(S(=O)(=O)CC(CS)NC(=O)CNC(=O)OCc2ccccc2)cc1 (racemic) [Example 33, 2-R,S-(N-carbobenzyloxy-glycyl)amino-3-(4-methoxybenzenesulfonyl)propanethiol] | 42 | 900 | 
5 | COc1ccc(S(=O)(=O)[C@@H]2CCC[C@@H](S)C2)cc1 (relative stereo) [Example 7, (R,S)trans-3-[(4-methoxyphenyl)sulfonyl]cyclohexanethiol] |  | 1000 | 
6 | O=S(=O)(c1ccc(Sc2ccccc2)cc1)[C@@H]1CCC[C@@H](S)C1 (relative stereo) [Example 38, (R,S)trans-3-[(phenylthio)phenylsulfonyl]cyclohexanethiol] |  | > 10000 | 
7 | COc1ccc(S(=O)(=O)C[C@@H](C)CS)cc1 [Example 3, 3-[(4-methoxyphenyl)sulfonyl]-2(S)-methylpropanethiol] |  | > 10000 | 
8 | O=S(=O)(CCCS)c1ccc(OCCCc2ccccc2)cc1 [Example 4, 3-[(4-{3-phenylpropyloxy)phenyl}sulfonyl]-propanethiol] | 1000 | > 10000 | 
9 | CC(C)(C)OC(=O)COc1ccc(S(=O)(=O)CCCS)cc1 [Example 5] | 400 | > 10000 | 
10 | O=C(O)COc1ccc(S(=O)(=O)CCCS)cc1 [Example 6] | > 10000 | > 10000 | 
11 | CCCC[C@]1(S(=O)(=O)c2ccc(OC)cc2)CCC[C@@H](S)C1 [Example 8, (R,S)3-butyl-3-[(4-methoxyphenyl)sulfonyl]cyclohexanethiol] | 1300 | > 10000 | 
12 | COc1ccc(S(=O)(=O)C2CCC(S)C2)cc1 (stereo not drawn) [Example 9] | 500 |  | 
13 | COc1ccc(CS(=O)(=O)CCCS)cc1 [Example 11, (R,S)-3-[(4-methoxybenzyl)-sulfonyl]propane thiol] | > 10000 | > 10000 | 
14 | COc1ccc(S(=O)(=O)CCCS)cc1 [Example 13, 3-[(4-methoxyphenyl)sulfonyl]propane-1-thiol] | 70 | 8000 | 
15 | COc1ccc(S(=O)(=O)C[C@H](C)CS)cc1 [Example 14, 3-[(4-methoxyphenyl)sulfonyl]-2R-methylpropane-1-thiol] | 190 | 6500 | 
16 | COc1ccc(S(=O)(=O)CC(C)(C)CS)cc1 [Example 15, 3-[(4-methoxyphenyl)sulfonyl]-2,2-dimethylpropane-1-thiol] | 700 |  | 
17 | CCC(CCS)S(=O)(=O)c1ccc(OC)cc1 (stereo not drawn) [Example 16, 3-[(4-methoxyphenyl)sulfonyl]-pentane-1-thiol] | 4 | 600 | 

Row | SMILES | IC50 (hMMP 13) [nM] | IC50 (hMMP 1) [nM] | inhibition (difference in area of neovascularization vs control mice) [1] [%]
18 | CCCCCCCCCC(CCS)S(=O)(=O)c1ccc(OC)cc1 (stereo not drawn) [Example 17, 3-[(4-methoxyphenyl)sulfonyl]-dodecane-1-thiol] | 210 | > 10000 | 
19 | COc1ccc(S(=O)(=O)C(CCS)Cc2ccccc2)cc1 (stereo not drawn) [Example 18, 3-[(4-methoxyphenyl)sulfonyl]-4-phenylbutane-1-thiol] |  | 60 | 
20 | COc1ccc(S(=O)(=O)C(C)CCS)cc1 (stereo not drawn) [Example 19, 3-[(4-methoxyphenyl)sulfonyl]-butane-1-thiol] | 200 | 7000 | 
21 | CCCC(CCS)S(=O)(=O)c1ccc(OC)cc1 (stereo not drawn) [Example 20, 3-[(4-methoxyphenyl)sulfonyl]hexane-1-thiol] | 7 | 1500 | 
22 | CCCCCC(CCS)S(=O)(=O)c1ccc(OC)cc1 (stereo not drawn) [Example 22, 3-[(4-methoxyphenyl)sulfonyl]-octane-1-thiol] | 0.5 | 1100 | 
23 | COc1ccc(S(=O)(=O)CCC(S)c2ccccc2)cc1 (stereo not drawn) [Example 24, 3-[(4-methoxyphenyl)sulfonyl]-1-phenylpropane-1-thiol] | 48 | 3500 | 
24 | COc1ccc(S(=O)(=O)CCCCS)cc1 [Example 25, 4-[(4--methoxyphenyl)sulfonyl]butane-1-thiol] | 700 | > 10000 | 
25 | CCCCOc1ccc(S(=O)(=O)CCCS)cc1 [Example 27, 3-[(4-butoxyphenyl)sulfonyl]propane-1-thiol] | 40 | > 10000 | 
26 | CCCCOc1ccc(S(=O)(=O)C(CCS)Cc2ccccc2)cc1 (stereo not drawn) [Example 28, 3-[(4-butoxyphenyl)sulfonyl]-4-phenylbutane-1-thiol] | 1.5 | 9000 | 
27 | CCCOc1ccc(S(=O)(=O)CCCS)cc1 [Example 29, 3-[(4-propoxyphenyl)sulfonyl]propanethiol] | 55 | 10000 | 
28 | O=S(=O)(CCCS)c1ccccc1 [Example 30, 3-(phenylsulfonyl)propane-1-thiol] | 900 | > 10000 | 
29 | CNC(=O)CC(CCS)S(=O)(=O)c1ccc(OC)cc1 (stereo not drawn) [Example 31] | 35 | 4750 | 
30 | COc1ccc(S(=O)(=O)CC(CS)NC(C)=O)cc1 (stereo not drawn) [Example 32, N-[1-(mercaptomethyl)-2-[(4-methoxyphenyl)sulfonyl)ethyl)acetamide] | 70 | 4000 | 
31 | COc1ccc(S(=O)(=O)CCS)cc1 [Example 34, 1-[(4-methoxyphenyl)sulfonyl]ethane-2-thiol] | 200 | 8000 | 
32 | O=S(=O)(CCCS)c1ccc(Oc2ccccc2)cc1 [Example 36, 3-[(4-phenoxy)phenylsulfonyl]propane-1-thiol] | 0.6 | 2400 | 
33 | O=S(=O)(CCCS)c1ccc(-c2ccccc2)cc1 [Example 37, 3-[(4-phenyl)phenylsulfonyl]propane-1-thiol] | 170 | > 10000 | 
34 | O=C(NCCN1CCOCC1)C(S)CCS(=O)(=O)c1ccc(Oc2ccccc2)cc1 (stereo not drawn) [Example 39] | 0.2 | 370 | 51
